Molecules are shown by their SMILES.

A word on the melting point: it is the temperature, or range, at which the solid turns liquid.

In the case of `COc1ccccc1C1(c2ncc(C)c(-c3ccc(Cl)cc3Cl)n2)CC1` [Compound 11, 4-(2,4-Dichloro-phenyl)-2-[1-(2-methoxy-phenyl)-cyclopropyl]-5-methyl-pyrimidine], the melting point was 46 to 48 °C.
